According to patent US8017656B2, “Organic sulfur compounds and use thereof” (Sumitomo Chemical Company, Limited, priority 2005, dated 2011):
Like-named read-outs stand apart in the source and are kept apart here.

Assays:
Type in all cases: in vivo
Culex pipiens pallens = assay: Test Example 4: mosquito larvae test in treated water; conditions: 24 h, read-out: rate of dead pests
Description: 0.7 ml of above test solution was added to 100 ml of ion exchanged water (active ingredient concentration: 3.5 ppm). Twenty last-instar larvae of Culex pipiens pallens were set free in the solution. After one day, the number of surviving and dead Culex pipiens pallens was examined and the rate of dead pests was calculated.

Blattella germanica = assay: Test Example 3: filter paper/sucrose bait test against German cockroach imagoes; conditions: Blattella germanica, 144 h, read-out: rate of dead pests
Description: (§1) On the bottom of a polyethylene cup having a diameter of 5.5 cm, a filter paper having the same diameter was laid, and 0.7 ml of the above test solution was added dropwise on the filter paper, followed by putting 30 mg of sucrose on it uniformly as a bait. Two male Blattella germanica imagoes were set free in the polyethylene cup and covered it with a lid. After 6 days, the number of surviving and dead Blattella germanica was examined and the rate of dead pests was calculated.

Musca domestica = assay: Test Example 2: filter paper/sucrose bait test against housefly imagoes; conditions: read-out: rate of dead pests
Description: as §1, with “Ten female Musca domestica” for “Two male Blattella germanica”, “24 hours,” for “6 days,”, “Musca domestica” for “Blattella germanica”

[1] = active ingredient concentration 3.5 ppm in water, twenty last-instar larvae, after one day
[2] = 500 ppm test solution, 0.7 ml on filter paper with 30 mg sucrose, two male imagoes, after 6 days
[3] = 500 ppm test solution, 0.7 ml on filter paper with 30 mg sucrose, ten female imagoes, after 24 hours

Structure (SMILES) | pest or weed control at 3.5 ppm (Culex pipiens pallens; [1]) [%] | pest or weed control at 500 ppm (Blattella germanica; [2]) [%] | pest or weed control at 500 ppm (Musca domestica; [3]) [%] | pest or weed control at 3.5 ppm (Culex pipiens pallens) [%] | pest or weed control at 500 ppm (Blattella germanica) [%] | pest or weed control at 500 ppm (Musca domestica; 24 h) [%]
CC(C#N)(CCC(F)(F)C(F)(F)F)SCCC(F)(F)F (stereo not drawn) [(50)] | ≥ 90 | 100 | ≥ 70 | – | – | –
CN(C)C(=O)C(CCC(F)(F)C(F)(F)F)S(=O)(=O)CCC(F)(F)F (stereo not drawn) [(33)] | ≥ 90 | 100 | ≥ 70 | – | – | –
CC(CCC(F)(F)C(F)(F)F)(C(N)=S)S(=O)(=O)CCC(F)(F)F (stereo not drawn) [(49)] | ≥ 90 | 100 | ≥ 70 | – | – | –
COC(=O)C(Cl)(CCC(F)(F)C(F)(F)F)S(=O)(=O)CCC(F)(F)F (stereo not drawn) [(58)] | ≥ 90 | 100 | ≥ 70 | – | – | –
CC(C#N)(CCC(F)(F)C(F)(F)F)S(=O)(=O)CCC(F)(F)F (stereo not drawn) [(11)] | ≥ 90 | 100 | ≥ 70 | – | – | –
N#CC(CCCC(F)(F)F)S(=O)(=O)CCC(F)(F)F (stereo not drawn) [(39)] | ≥ 90 | 100 | ≥ 70 | – | – | –
N#CC(F)(CCC(F)(F)C(F)(F)F)S(=O)(=O)CCC(F)(F)F (stereo not drawn) [(20)] | ≥ 90 | 100 | ≥ 70 | – | – | –
N#CC(CC(F)(F)C(F)(F)C(F)(F)F)S(=O)(=O)CCC(F)(F)C(F)(F)F (stereo not drawn) [(9)] | – | – | – | ≥ 90 | 100 | ≥ 70
COC(=O)C(Cl)(CCCC(F)(F)F)S(=O)(=O)CCC(F)(F)F (stereo not drawn) [(79)] | ≥ 90 | 100 | ≥ 70 | – | – | –
COC(=O)C(C)(CCC(F)(F)C(F)(F)F)[S+]([O-])CCC(F)(F)F (stereo not drawn) [(71)] | ≥ 90 | 100 | ≥ 70 | – | – | –
CC(CCC(F)(F)C(F)(F)F)(C(N)=O)S(=O)(=O)CCC(F)(F)F (stereo not drawn) [(34)] | ≥ 90 | 100 | ≥ 70 | – | – | –
N#CC(CC(F)(F)C(F)(F)C(F)(F)F)S(=O)(=O)CCC(F)(F)F (stereo not drawn) [(4)] | – | – | – | ≥ 90 | 100 | ≥ 70
COC(=O)C(Cl)(CCC(F)(F)C(F)(F)C(F)(F)C(F)(F)F)S(=O)(=O)CCC(F)(F)F (stereo not drawn) [(86)] | – | – | – | ≥ 90 | 100 | ≥ 70
CC(CCC(F)(F)C(F)(F)F)(SCCC(F)(F)F)C(N)=O (stereo not drawn) [(70)] | ≥ 90 | 100 | ≥ 70 | – | – | –
COC(=O)C(CCC(F)(F)C(F)(F)F)[S+]([O-])CCC(F)(F)F (stereo not drawn) [(63)] | ≥ 90 | 100 | ≥ 70 | – | – | –
NC(=O)C(F)(CCC(F)(F)C(F)(F)F)S(=O)(=O)CCC(F)(F)C(F)(F)F (stereo not drawn) [(73)] | ≥ 90 | 100 | ≥ 70 | – | – | –
CC(CCC(F)(F)C(F)(F)F)(C(N)=O)S(=O)(=O)CCC(F)(F)C(F)(F)F (stereo not drawn) [(61)] | ≥ 90 | 100 | ≥ 70 | – | – | –
CC(C#N)(CC(F)(F)C(F)(F)C(F)(F)F)S(=O)(=O)CCC(F)(F)F (stereo not drawn) [(12)] | – | – | – | ≥ 90 | 100 | ≥ 70
NC(=O)C(Cl)(CCCCC(F)(F)F)S(=O)(=O)CCC(F)(F)F (stereo not drawn) [(100)] | ≥ 90 | 100 | ≥ 70 | – | – | –
COC(=O)C(Cl)(CCC(F)(F)C(F)(F)C(F)(F)F)S(=O)(=O)CCC(F)(F)C(F)(F)F (stereo not drawn) [(96)] | – | – | – | ≥ 90 | 100 | ≥ 70
CC(C#N)(CCC(F)(F)C(F)(F)F)S(=O)(=O)CCC(F)(F)C(F)(F)C(F)(F)F (stereo not drawn) [(14)] | – | – | – | ≥ 90 | 100 | ≥ 70

Structure (SMILES) | pest or weed control at 3.5 ppm (Culex pipiens pallens; [1]) [%] | pest or weed control at 500 ppm (Blattella germanica; [2]) [%] | pest or weed control at 500 ppm (Musca domestica; [3]) [%] | pest or weed control at 3.5 ppm (Culex pipiens pallens) [%] | pest or weed control at 500 ppm (Blattella germanica) [%] | pest or weed control at 500 ppm (Musca domestica; 24 h) [%]
NC(=O)C(CCC(F)(F)C(F)(F)F)S(=O)(=O)CCC(F)(F)F (stereo not drawn) [(31)] | ≥ 90 | 100 | ≥ 70 | – | – | –
COC(=O)C(Cl)(CCC(F)(F)F)S(=O)(=O)CCC(F)(F)C(F)(F)F (stereo not drawn) [(93)] | ≥ 90 | 100 | ≥ 70 | – | – | –
CN(C)C(=O)C(F)(CCC(F)(F)C(F)(F)F)S(=O)(=O)CCC(F)(F)F (stereo not drawn) [(74)] | ≥ 90 | 100 | ≥ 70 | – | – | –
CNC(=O)C(Cl)(CCC(F)(F)C(F)(F)F)S(=O)(=O)CCC(F)(F)F (stereo not drawn) [(75)] | ≥ 90 | 100 | ≥ 70 | – | – | –
N#CC(CCC(F)(F)F)S(=O)(=O)CCC(F)(F)C(F)(F)F (stereo not drawn) [(53)] | ≥ 90 | 100 | ≥ 70 | – | – | –
COC(=O)C(Br)(CCC(F)(F)C(F)(F)F)S(=O)(=O)CCC(F)(F)F (stereo not drawn) [(65)] | ≥ 90 | 100 | ≥ 70 | – | – | –
COC(=O)C(F)(CCC(F)(F)C(F)(F)F)S(=O)(=O)CCC(F)(F)C(F)(F)F (stereo not drawn) [(72)] | ≥ 90 | 100 | ≥ 70 | – | – | –
NC(=O)C(CCC(F)(F)C(F)(F)F)S(=O)(=O)CCC(F)(F)C(F)(F)F (stereo not drawn) [(60)] | ≥ 90 | 100 | ≥ 70 | – | – | –
CNC(=O)C(F)(CCC(F)(F)C(F)(F)F)S(=O)(=O)CCC(F)(F)F (stereo not drawn) [(69)] | ≥ 90 | 100 | ≥ 70 | – | – | –
CC(C#N)(CCCC(F)(F)F)S(=O)(=O)CCC(F)(F)F (stereo not drawn) [(45)] | ≥ 90 | 100 | ≥ 70 | – | – | –
COC(=O)C(F)(CCC(F)(F)C(F)(F)F)S(=O)(=O)CCC(F)(F)F (stereo not drawn) [(29)] | ≥ 90 | 100 | ≥ 70 | – | – | –
N#CC(CCC(F)(F)C(F)(F)F)S(=O)(=O)CCC(F)(F)C(F)(F)C(F)(F)F (stereo not drawn) [(10)] | – | – | – | ≥ 90 | 100 | ≥ 70
NC(=O)C(Cl)(CCCC(F)(F)C(F)(F)F)S(=O)(=O)CCC(F)(F)F (stereo not drawn) [(103)] | ≥ 90 | 100 | ≥ 70 | – | – | –
N#CC(CCC(F)(F)F)S(=O)(=O)CCC(F)(F)F (stereo not drawn) [(1)] | ≥ 90 | 100 | ≥ 70 | – | – | –
CCNC(=O)C(C)(CCC(F)(F)C(F)(F)F)S(=O)(=O)CCC(F)(F)F (stereo not drawn) [(37)] | ≥ 90 | 100 | ≥ 70 | – | – | –
CCC(C#N)(CCC(F)(F)C(F)(F)F)S(=O)(=O)CCC(F)(F)F (stereo not drawn) [(15)] | ≥ 90 | 100 | ≥ 70 | – | – | –
NC(=O)C(Cl)(CCC(F)(F)C(F)(F)F)S(=O)(=O)CCC(F)(F)F (stereo not drawn) [(59)] | ≥ 90 | 100 | ≥ 70 | – | – | –
NC(=O)C(Cl)(CCC(F)(F)C(F)(F)C(F)(F)C(F)(F)F)S(=O)(=O)CCC(F)(F)F (stereo not drawn) [(87)] | – | – | – | ≥ 90 | 100 | ≥ 70
CNC(=O)C(CCC(F)(F)C(F)(F)F)S(=O)(=O)CCC(F)(F)F (stereo not drawn) [(32)] | ≥ 90 | 100 | ≥ 70 | – | – | –
COC(=O)C(Cl)(CCC(F)(F)C(F)(F)F)S(=O)(=O)CCC(F)(F)C(F)(F)F (stereo not drawn) [(88)] | ≥ 90 | 100 | ≥ 70 | – | – | –
NC(=O)C(Cl)(CCC(F)(F)F)S(=O)(=O)CCC(F)(F)C(F)(F)F (stereo not drawn) [(94)] | ≥ 90 | 100 | ≥ 70 | – | – | –
